Activity calls are given as the source filed them. No cut-off for these calls is given here.
Key:
[1] = Antiinvasive activity against human MCF7/6 cells precultured with 9 day old chick embryo heart tissue fragment assessed as lowest concentration by chick heart invasion assay; format: functional
MCF7/6 [2] = test: Antiinvasive activity against human MCF7/6 cells precultured with 9 day old chick embryo heart tissue fragment at 1 micromol/l by chick heart invasion assay; format: functional, cell-based
MCF7/6 [3] = test: Antiinvasive activity against human MCF7/6 cells precultured with 9 day old chick embryo heart tissue fragment at 100 micromol/l by chick heart invasion assay; format: functional, cell-based
MCF7/6 [4] = test: Antiinvasive activity against human MCF7/6 cells precultured with 9 day old chick embryo heart tissue fragment at 10 micromol/l by chick heart invasion assay; format: functional, cell-based
MCF7/6 [5] = test: Antiinvasive activity against human MCF7/6 cells precultured with 9 day old chick embryo heart tissue fragment at 0.1 micromol/l by chick heart invasion assay; format: functional, cell-based
[6] = Cytotoxicity against human MCF7/6 cells at 10 umol/l; format: cell-based; settings: mcf7/6, 10 µM
[7] = Cytotoxicity against human MCF7/6 cells at 100 umol/l; format: cell-based; settings: mcf7/6, 100 µM
MCF7/6 [8] = test: Antiinvasive activity against human MCF7/6 cells precultured with 9 day old chick embryo heart tissue fragment at 0.01 micromol/l by chick heart invasion assay; format: functional, cell-based

| SMILES | logMIC [1] | Activity (MCF7/6 [2]) | Activity (MCF7/6 [3]) | Activity (MCF7/6 [4]) | Activity (MCF7/6 [5]) | Activity [6] | Activity [7] | Activity (MCF7/6 [8]) |
| --- | --- | --- | --- | --- | --- | --- | --- | --- |
| COc1cc(/C=C\c2ccc(F)cc2)cc(OC)c1OC | 1 |  |  |  |  |  |  |  |
| COc1cc(/C=C/c2ccc(F)cc2)cc(OC)c1OC | 0 |  |  |  |  |  |  |  |
| O=C(/C=C/C=C/c1ccccc1)c1ccc(Cl)cc1 | 3 | Active | Active | inactive | inactive |  |  |  |
| O=C(/C=C/C=C/c1ccccc1)c1ccccc1 | 2 | inactive | Active | inactive | inactive | Toxic | Toxic |  |
| O=C(/C=C/c1ccccc1)c1ccccc1 [CHALCONE] | 1 | inactive |  | Active |  |  |  |  |
| O=C(/C=C/C=C/c1ccccc1)c1ccc(F)cc1 | 0 | Active | Active |  | inactive | Toxic | Toxic | inactive |
| COc1cc(C(=O)/C=C/C=C/c2ccc(F)cc2)cc(OC)c1OC | 1 | inactive |  | Active | inactive | Toxic |  |  |
| O=C(/C=C/c1ccccc1)/C=C/c1ccccc1 | 0 | Active | Active | Active | inactive |  | Toxic | inactive |
| O=C(/C=C/C=C/c1ccccc1)/C=C/c1ccccc1 | 0 | Active | Active | Active | inactive |  | Toxic | inactive |
| O=C(/C=C/c1ccc(O)cc1)CC(=O)/C=C/c1ccc(O)cc1 [BISDEMETHOXYCURCUMIN] | 1 | inactive |  | Active | inactive | Toxic |  |  |
| COc1cc(C(=O)/C=C/c2ccc(F)cc2)cc(OC)c1OC | -2 | Active |  | Active | Active | Non-toxic |  | Active |
| COc1cc(/C=C/C(=O)CC(=O)/C=C/c2ccc(O)c(OC)c2)ccc1O [CURCUMIN] | 1 | inactive |  | Active | inactive |  |  |  |
| COc1cc(C(=O)/C=C/C=C/c2ccccc2)cc(OC)c1OC | 1 | inactive | Active | Active | inactive | Toxic | Toxic | inactive |
| C(=C\c1ccccc1)/c1ccccc1 | -1 |  |  |  |  |  |  |  |
